Laboratory results reported in a melting point compilation (Tetko et al.; mined from patent text by program, amines drawn as free bases though some values may be those of a salt).

Row | melting point | SMILES
1 | 163 to 165 °C | COC(=O)c1cc(-n2cnc(Br)c2)c(C(F)(F)F)cc1N
2 | 138 to 140 °C | CC(C)n1nc(Cl)cc1O
3 | 81 to 84 °C | O=C1OC(=Nc2ccc(Cl)cc2F)C2=C1CCCC2
4 | 225 to 227 °C | Cc1nc(SCc2ncccc2C(=O)O)sc1CC(=O)O
5 | 233 to 235 °C | CCCc1[nH]c(=O)[nH]c(=O)c1N1CCN(Cc2ccccc2)CC1
6 | 42 to 44 °C | Cc1oncc1C(=O)N1CCOCC1
7 | 176 to 178 °C | CNC(=O)C(C)Oc1ncn(-c2ccc(Br)cc2)n1 (stereo unspecified)
8 | 177 to 179 °C | COc1ccc(C2=NN(C3CCN(C(=O)CN4C(=O)CCC4=O)CC3)C(=O)C(C)(C)C2)cc1OC
9 | 115 to 117 °C | CC1=C(C(=O)Nc2ccc(Cl)cc2)SCCS1
10 | 208 to 210 °C | Cc1c(F)cc2c(=O)c(C(=O)O)cn(C3CC3)c2c1F
11 | 194 to 200 °C | CCCn1nc2c(N)nc3c(c2c1CCCCO)CCCC3
12 | 91 to 92 °C | CC(C)NC(=O)C[C@@H]1CCCNc2ccccc21
13 | 141 to 142 °C | CC(=O)COc1cc2c3ccccc3n(Cc3ccccc3)c2cn1
14 | 180 to 181 °C | CCS(=O)(=O)c1ccc(-c2coc3ccc(-c4nnc(C)o4)cc23)cc1
15 | 315 to 320 °C | O=C1N=C(N2CCOCC2)SC1=Cc1cc(-c2ccccc2)cc(-c2ccc(O)c(C34CC5CC(CC(C5)C3)C4)c2)c1
16 | 230 to 233 °C | O=C(NCc1ccc(Cl)cc1)c1cnc2c(I)cc(CN3CCOCC3)cc2c1O
17 | 148 to 151 °C | CONC(=O)NC1CCC(=O)c2ccccc21 (stereo unspecified)
18 | 114 °C | O=C(CCC(=O)N1CCCCC1c1ccccc1)c1ccc2c(c1)CCNCC2 (stereo unspecified)
19 | 236 to 238 °C | O=C(c1cn(-c2ccccc2)nc1-c1ccc([N+](=O)[O-])o1)N1CCCC1
20 | 143 to 145 °C | C=CC(C)c1cc(C)c2c(c1O)C(N(C)C(C)=O)C1CCCCC21 (stereo unspecified)
21 | 132 to 134 °C | CN1CCC2(CC1)c1ccccc1Cc1ccccc12
22 | 160 °C | CC(C)(C)OC(=O)NCC1CCN(CC2(C(=O)O)CCC2)CC1
23 | 171 to 172 °C | COC(=O)c1ccc(Cn2ncc3ccc([N+](=O)[O-])cc32)cc1
24 | 214 °C | CN(c1cccc2cc(C3=NCC4(CCN(CCO)CC4)S3)[nH]c12)S(=O)(=O)c1cccs1
25 | 112 °C | O=C(Nc1cccc(I)c1)C1CC1
26 | 45 to 47 °C | CCS(=O)(=O)CCN1CCCCC1

The next lines start with the compound.

Row | SMILES | melting point
27 | COc1cc(-c2cccc(Cl)c2)c2cc(Br)ccc2n1 | 124 °C
28 | COc1ccc(C2Sc3ccccc3N(CCN(C)C)C(=O)C2OC(=O)c2cccc([N+](=O)[O-])c2)cc1 (stereo unspecified) | 178 to 180 °C
29 | CN(Cc1ccccc1)C1CCN(c2c(F)cc([N+](=O)[O-])c(F)c2CCl)C1 (stereo unspecified) | 94 to 98 °C
30 | C#Cc1cc(Nc2ncnc3cnc(NC(=O)CP(=O)(OCC)OCC)cc23)ccc1Cl | 124 to 127 °C
31 | Cc1oc(-c2ccccc2)nc1COc1ccc(COc2ccc(O)cc2CC(=O)O)cc1 | 194 to 195 °C
32 | COc1ccc(C(=O)c2cccc(OCc3nc(-c4ccccc4)oc3C)c2)c(O)c1 | 117 to 118 °C
33 | O=C(O)CCCCC1SCc2[nH]c(=O)[nH]c21 (single isomer, unassigned; (-)) | 189 to 199 °C
34 | CCNc1nc(Cl)nc(Nc2ccc(OC)cc2)n1 | 174 to 176 °C
35 | CC(C)(C)NCCCOc1ccccc1C(=O)c1cccc2[nH]ccc12 | 130 °C
36 | COc1ccc(Cl)c([N+](=O)[O-])c1Cl | 97 to 99 °C
37 | Cc1cccc(-c2sc3ccc(C(F)(F)F)cc3c2O)c1 | 124 to 126 °C
38 | Cc1cccc(OC(=O)c2ccccc2)c1 | 51 to 54 °C
39 | NS(=O)(=O)c1ccc(CC(=O)C=CC(=O)O)cc1 | 180 to 181 °C
40 | COc1cc(C)c(C=CC(C)=CC=CC(C)=CC(=O)O)c(C)c1 | 207 to 208 °C
41 | CN(C)CC(C)(C)Cn1ccc(-c2ccc(F)cc2)c1-c1ccncc1 | 101 to 103 °C
42 | CCOCCOc1nc(NC(C)=O)nc2ccc(Cl)nc12 | 185 °C
43 | CC(C)(C)OC(=O)c1nc(-c2ccccc2)[nH]c1-c1cccnc1 | 196 to 197 °C
44 | CCCCCCCCSc1ccc(CC(COC(C)=O)(COC(C)=O)NC(C)=O)cc1 | 71 to 74 °C
45 | CCCN(CCC)c1c([N+](=O)[O-])cc(S(=O)(=O)N(C)SC)cc1[N+](=O)[O-] | 119 to 121 °C
46 | CCOC(=O)CC[C@H](NC(=O)c1csc(CCCc2cc3c(=O)[nH]c(N)nc3[nH]2)c1)C(=O)OCC | 81 to 82 °C
47 | O=C(Nc1ccc(N(CCCl)CCCl)cc1)Nc1cccc([N+](=O)[O-])c1 | 246 to 247 °C
48 | CC1CCn2c(c(-c3ccccc3)c3cccnc3c2=O)C(=O)N(Cc2cc(C(F)(F)F)cc(C(F)(F)F)c2)C1 (racemic) | 257 to 258 °C
49 | CCC(CC)(OC)c1ccc(Cl)c2nc3n(c12)CCCN3c1ccc(Cl)cc1C(F)(F)F | 172 to 173 °C

Row | SMILES | melting point
50 | O=CNC1=NN(c2cccc(F)c2)C(c2ccc(Cl)cc2)C1 (stereo unspecified) | 128 to 130 °C
51 | O=C(NCCCl)Nc1ccc(CCCc2ccccc2OCc2ccccc2)cc1 | 120 to 121 °C
52 | CN(Sc1ccc(C(C)(C)C)cc1)C(=O)Oc1cccc2c1OC(C)(C)C2 | 120 to 123 °C
53 | O=C(CCl)Nc1sccc1C(O)c1ccccc1Cl (stereo unspecified) | 118 to 120 °C
54 | O=C(O)c1ccc(CCOc2c(F)ccc3nc(C(=O)NCc4cccc(OCCOc5nc[nH]n5)c4)[nH]c(=O)c23)cc1 | 122 to 124 °C
55 | O=C(Sc1ccccn1)c1ccccc1 | 48 to 50 °C
56 | N#CC1=Cc2ccccc2C(N2CCN(N=Cc3ccccn3)CC2)c2ccccc21 (stereo unspecified) | 182 to 184 °C
57 | NC(=O)c1nc(CN2CCOCC2)n(-c2ccc(Cl)cc2C(=O)c2ccccc2Cl)n1 | 165 to 167 °C
58 | O=C(CNc1c(C(=O)O)[nH]c2cc(Cl)cc(Cl)c12)c1ccc([N+](=O)[O-])cc1 | 270 to 272 °C
59 | O=C1NC(=S)NC(=O)C1=Cc1cc(Br)cs1 | 230 °C
60 | O=c1[nH]c2ccccc2cc1-c1csc(-c2ccncc2)n1 | 241 to 243 °C
61 | O=C(Nc1ccc(C(F)(F)F)cc1)Nc1ccc2c(c1)OC(F)(F)O2 | 195 to 200 °C
62 | CCCC(=NOCC)C1=C(O)CC(c2ccc(C=O)cc2)CC1=O (stereo unspecified) | 81 to 82 °C
63 | COc1cccc2[nH]c(C(=O)OCc3ccccc3)cc12 | 162 to 164 °C
64 | N#Cc1ccc2sc3c(c2c1)CC(CO)CC3 (stereo unspecified) | 165 to 166 °C
65 | CCSc1nc2c(C(=O)OC)sc(-c3ccccc3)c2[nH]1 | 214 to 215 °C
66 | Nc1ncc(-c2ccc(F)cc2)cc1[N+](=O)[O-] | 232 °C
67 | CCCN(CCOc1c(Cl)cccc1Cl)C1CCc2c(ccc(OCc3ccc(OC(=O)C(C)C)cc3)c2OCc2ccc(OC(=O)C(C)C)cc2)C1 (stereo unspecified) | 84 to 86 °C
68 | O=C(O)COc1ccc(-c2ccccc2OC2OC(CO)C(O)C(O)C2O)cc1 (stereo unspecified) | 145 to 146 °C
69 | CC(C)(C)c1nn(-c2cc(O)c(Cl)cc2Cl)c(=O)s1 | 130 to 132 °C
70 | CCOP(=O)(OCC)c1c(C)c2c(c(C)c1-c1c(OCc3ccccc3)ccc3ccccc13)CN(S(=O)(=O)c1ccc(C)cc1)C2 | 69.8 to 71.7 °C
71 | O=C(O)CCCCCCCCCN1C(=O)c2ccccc2C1=O | 58 to 60 °C
